Paper PMC4740413, “Multi-Drug Resistance Transporters and a Mechanism-Based Strategy for Assessing Risks of Pesticide Combinations to Honey Bees” (PLoS ONE, 2016)
Like-named read-outs stand apart in the source and are kept apart here.

What was measured:
honey bees [1] = conditions: for Mortality (SE) 1 μg/ml IVM and 1mM Inhibitor: 1 mM inhibitor fed 24 h, then 1 mM inhibitor + 1 μg/ml ivermectin, proportion of bees dead at 24 h; for Mortality (SE), inhibitor-only control: 1 mM inhibitor without ivermectin, proportion of bees dead
Description: Apis mellifera were obtained from hives maintained on the University of Maryland farm in Beltsville, MD. Hives were maintained by standard bee keeping practices, and kept free of in-hive medications. Brood frames were taken from hives and emerging bees were collected daily into 207 ml cages of 15–20 bees and fed 30% sucrose w/v solution. Bees used in bioassays were 3–7 days post-eclosion.
Mortality was recorded 24 h after ivermectin exposure for 20–28 replicate cages of bees with approximately 15 bees in each cage. No-inhibitor controls (15 cages) were included in each assay. […] Mortality rates for each concentration of ivermectin were estimated by averaging the mortality of approximately 15 bees contained in each of 4 replicate cages. Similarly, to measure changes in sensitivity to ivermectin at varying dosages of the inhibitors, 4–12 replicate cages of bees (fewer at extreme dosages, more at intermediates) were fed a series of concentrations of each inhibitor (0, 0.03, 0.06, 0.125, 0.25, 0.5, 1.0, 2.0 mM) for 24 h, then fed a combination of the same inhibitor dose and 1μg/ml ivermectin solution.
Mortality was estimated as the proportion of bees within a cage that were dead at 24 or 48 h after treatment with ivermectin. Comparisons of mean mortality among treatments were tested using t-tests. LC50s of ivermectin with inhibitors were estimated using the ProcProbit procedure in SAS (V. 9.2).

honey bees [2] = assay: Acetamiprid assay: honey bee mortality after acetamiprid with or without inhibitors; conditions: for Mean mortality, acetamiprid with inhibitor: 1 mM inhibitor + 0.1 μg/μl acetamiprid; for Mean mortality, inhibitor only: 1 mM inhibitor without insecticide, 3 replicate cages

In the case of `CC[C@H](C)[C@H]1O[C@]2(CC[C@@H]1C)C[C@@H]1C[C@@H](C/C=C(\C)[C@@H](O[C@H]3C[C@H](OC)[C@@H](O[C@H]4C[C@H](OC)[C@@H](O)[C@H](C)O4)[C@H](C)O3)[C@@H](C)/C=C/C=C3\CO[C@@H]4[C@H](O)C(C)=C[C@@H](C(=O)O1)[C@]34O)O2` [Ivermectin (IVM), Ivermectin], the “Synergism Ratio (LC50 relative to IVM)” value (honey bees [1]; 1 mM inhibitor) was 1.00 and the LC50 of ivermectin (honey bees [1]; ivermectin alone in syrup, 24 h) was 1.57 µg/mL.
`C/C(=N\C#N)N(C)Cc1ccc(Cl)nc1` [acetamiprid] was tested, and the “Mean mortality, acetamiprid alone” value (honey bees [2]; 0.1 μg/μl acetamiprid, 24 h) was 0.25.
`CO[C@@H]1[C@H](OC(=O)/C=C/C=C/C=C/C=C/C(=O)O)CC[C@]2(CO2)[C@H]1[C@@]1(C)O[C@@H]1CC=C(C)C` [Fumagillin, fumagillin] was tested, and the “Low inhibitor dosage that increases sensitivity of bees to ivermectin” value (honey bees [1]; 1 μg/ml ivermectin, 24 h (Fig 2)) was 0.03 mM, the “Mortality (SE) 1 μg/ml IVM and 1mM Inhibitor” value (honey bees [1]) was 0.47 and the “Mortality (SE), inhibitor-only control” value (honey bees [1]) was 0.01 (0.01). For the same compound, the “Mortality (SE), inhibitor-only control” value (honey bees [1]; listed as fumagillin) was 0.01, the “Mean mortality, acetamiprid with inhibitor” value (honey bees [2]; 24 h) was 0.80 and the “Mean mortality, inhibitor only” value (honey bees [2]) was 0.01.
In the case of `O=c1c(O)c(-c2ccc(O)c(O)c2)oc2cc(O)cc(O)c12` [Quercetin, quercetin], the “Mortality (SE) 1 μg/ml IVM and 1mM Inhibitor” value (honey bees [1]) was 0.54, the “Mortality (SE), inhibitor-only control” value (honey bees [1]) was 0.02 (0.02) and the “Mortality (SE), inhibitor-only control” value (honey bees [1]; listed as quercetin) was 0.02. The “Mean mortality, acetamiprid with inhibitor” value (honey bees [2]; 24 h) was 0.97 and the “Mean mortality, inhibitor only” value (honey bees [2]) was 0.07.
